Values after ≈ are worked out from the molar mass of the structure shown. Read-outs that look alike come from different tables or passages of the source.
Experiments:
Experiment in all cases: In vitro antibacterial spectrum, agar plate dilution (MIC)
Type in all cases: cell-based
Citrobacter diversus = details: Citrobacter koseri; Citrobacter diversus K 82-24; Mueller-Hinton agar, 10^4 CFU, 18 h, 35° C
Description: (§1) The in vitro antimicrobial spectrum of the compounds of the invention were determined by the agar plate dilution method with Mueller-Hinton agar and an inoculum of each test organism of approximately 10^4 colony forming units delivered by the Steers replicating device. The minimal inhibitory concentration (MIC) in mcg/ml is defined as the lowest concentration of test compound that inhibited visible growth after 18 hours incubation at 35° C.

Enterobacter cloacae = details: 18 h, 10^4 CFU, 35° C
Description: as §1

Escherichia coli = details: 10^4 CFU, 35° C
Description: as §1

Klebsiella nneumoniae = details: Mueller-Hinton agar, 10^4 CFU, 18 h, 35° C
Description: as §1

Morganella morganii = details: 18 h, 10^4 CFU, 35° C
Description: as §1

Proteus rettgeri = details: Providencia rettgeri; Proteus rettgeri IO 83-21; Mueller-Hinton agar, 10^4 CFU, 18 h, 35° C
Description: as §1

Providencia stuartii = Providencia stuartii CMC 83-3; Mueller-Hinton agar, 10^4 CFU, 18 h, 35° C
Description: as §1

Pseudomonas aeruginosa = details: Mueller-Hinton agar, 10^4 CFU, 18 h, 35° C
Description: as §1

Serratia marcescens = details: 18 h, 10^4 CFU, 35° C
Description: as §1

Staphylococcus aureus = details: Mueller-Hinton agar, 10^4 CFU, 18 h, 35° C
Description: as §1

Streptococcus faecalis = details: Mueller-Hinton agar, 10^4 CFU, 18 h, 35° C
Description: as §1

Work on CN1CCN(c2cc3c(cc2F)c(=O)c(C(=O)O)c2ccccn23)CC1 [Example 6, 8-Fluoro-9-(4-methyl-1-piperazinyl)-6-oxo-6H-benzo[c]quinolizine-5-carboxylic acid] yielded an MIC (Citrobacter diversus) of 4 µg/mL (≈ 11.3 µM), an MIC (Enterobacter cloacae; Enterobacter cloacae K 84-10, Mueller-Hinton agar) of 2 µg/mL (≈ 5.63 µM) and an MIC (Enterobacter cloacae; Enterobacter cloacae MOR 84-30, Mueller-Hinton agar) of 16 µg/mL (≈ 45 µM). For the same compound, the MIC (Enterobacter cloacae; Enterobacter cloacae VGH 84-39, Mueller-Hinton agar) was 2 µg/mL (≈ 5.63 µM), the MIC (Escherichia coli; 18 h, Escherichia coli CMC 84-50, Mueller-Hinton agar) was 2 µg/mL (≈ 5.63 µM) and the MIC (Escherichia coli; 18 h, Escherichia coli D 21, Mueller-Hinton agar) was 4 µg/mL (≈ 11.3 µM). The MIC (Escherichia coli; 18 h, Escherichia coli D 22, Mueller-Hinton agar) was 2 µg/mL (≈ 5.63 µM), the MIC (Escherichia coli; 18 h, Escherichia coli MOR 84-20, Mueller-Hinton agar) was 2 µg/mL (≈ 5.63 µM) and the MIC (Escherichia coli; 18 h, Escherichia coli VGH 84-19, Mueller-Hinton agar) was 4 µg/mL (≈ 11.3 µM). For the same compound, the MIC (Escherichia coli; ATCC25922, 18 h, Escherichia coli ATCC 25922, Mueller-Hinton agar) was 4 µg/mL (≈ 11.3 µM), the MIC (Klebsiella nneumoniae; Klebsiella nneumoniae IO 83-5) was 8 µg/mL (≈ 22.5 µM) and the MIC (Klebsiella nneumoniae; Klebsiella nneumoniae MOR 84-24, read-out: MIC) was 8 µg/mL (≈ 22.5 µM). For the same compound, the MIC (Klebsiella nneumoniae; Klebsiella oneumoniae CMC 84-31) was 8 µg/mL (≈ 22.5 µM), the MIC (Morganella morganii; Morganella morganii CMC 84-38, Mueller-Hinton agar) was 0.5 µg/mL (≈ 1.41 µM) and the MIC (Morganella morganii; Morganella morganii VGH 84-12, Mueller-Hinton agar) was 4 µg/mL (≈ 11.3 µM). The MIC (Morganella morganii; Moroanella morganii MOR 84-45, Mueller-Hinton agar) was 0.5 µg/mL (≈ 1.41 µM), the MIC (Proteus rettgeri) was 1 µg/mL (≈ 2.81 µM) and the MIC (Providencia stuartii) was > 16 µg/mL. The MIC (Pseudomonas aeruginosa; Pseudomonas aeruginosa CMC 83-20) was > 16 µg/mL, the MIC (Pseudomonas aeruginosa; Pseudomonas aeruginosa K 84-16, read-out: MIC) was > 16 µg/mL and the MIC (Pseudomonas aeruginosa; Pseudomonas aeruginosa VGH 84-3) was > 16 µg/mL. For the same compound, the MIC (Serratia marcescens; Serratia marcescens CMC 83-74, Mueller-Hinton agar) was > 16 µg/mL, the MIC (Serratia marcescens; Serratia marcescens IO 83-63, Mueller-Hinton agar) was 4 µg/mL (≈ 11.3 µM) and the MIC (Serratia marcescens; Serratia marcescens MOR 84-41, Mueller-Hinton agar) was 2 µg/mL (≈ 5.63 µM). For the same compound, the MIC (Staphylococcus aureus; ATCC25913, Staphylococcus aureus ATCC 25913, read-out: MIC) was > 16 µg/mL, the MIC (Staphylococcus aureus; Staphylococcus aureus CMC 83-131) was > 16 µg/mL and the MIC (Staphylococcus aureus; Staphylococcus aureus K 82-26) was > 16 µg/mL. The MIC (Staphylococcus aureus; Staphylococcus aureus VGH 84-47, read-out: MIC) was > 16 µg/mL, the MIC (Streptococcus faecalis; Enterococcus faecalis, Streptococcus faecalis VCI 85-30, read-out: MIC) was > 16 µg/mL and the MIC (Streptococcus faecalis; Streptococcus faecalis CMC 83-120) was > 16 µg/mL. For the same compound, the MIC (Streptococcus faecalis; Streptococcus faecalis VGH 84-69) was > 16 µg/mL.

Reference: US4923868A, “8-fluoro and 7,8,10-trifluoro-9-(substituted)-6-oxo-6H-benzo(C)quinolizine-5-carboxyl ic acids” (American Cyanamid Company, priority 1989, dated 1990)
